The text below walks through data of ChEMBL document CHEMBL6153103, “Novel Bioorthogonal Theranostic Scaffold Enables on-Target Drug Release and Real Time Monitoring In Vivo” (J Med Chem, 2025).

Series [1] relates to HeLa. As to the kind of experiment: Cytotoxicity against human HeLa cells assessed as inhibition of cell proliferation incubated for 72 hrs 15 uM of (4-((2-((10-(((4-(6-methyl-1,2,4,5-tetrazin-3-yl)benzyl)oxy)carbonyl)-2,3-dihydrophenanthro[9,10-b][1,4]dioxin-2-yl)oxy)ethoxy)carbonyl)phenyl)boronic acid by CCK-8 assay. Format: functional, cell-based. A general note: Tetrazolium assays rely on reduction of a dye to a coloured formazan, in cell work by metabolically active cells.

A short description of series [2]: Prodrug release in human A549 cells assessed as DOX release by measuring increase in fluorescence intensity at 100 uM measured after 2 hrs by confocal microscopy. Particulars: a549, 2 h. In kind it is ADME, cell-based.
Series [3] can be described thus: Cytotoxicity against human HEK293T cells assessed as inhibition of cell proliferation incubated for 72 hrs 15 uM of 4-(6-methyl-1,2,4,5-tetrazin-3-yl)benzyl 3-(2-hydroxyethoxy)-2,3-dihydrophenanthro[9,10-b][1,4]dioxine-7-carboxylate by CCK-8 assay. In kind it is toxicity, cell-based, HEK-293T.
Series [4] can be described thus: Cytotoxicity against human HEK293T cells assessed as inhibition of cell proliferation incubated for 72 hrs 15 uM of (4-((2-((10-(((4-(6-methyl-1,2,4,5-tetrazin-3-yl)benzyl)oxy)carbonyl)-2,3-dihydrophenanthro[9,10-b][1,4]dioxin-2-yl)oxy)ethoxy)carbonyl)phenyl)boronic acid by CCK-8 assay. In kind it is toxicity, cell-based, HEK-293T.
Series [5] is described as follows: Prodrug release in human A549 cells xenografted in BALB/c nude mouse assessed as DOX release by measuring change in green fluorescence intensity in tumor at 5 mg/kg, ip administered for 1 hr by DAPI staining based confocal microscopic analysis. Format: ADME, organism-based. The following applies: in vivo.
Series [6] in a line: Drug uptake in human HeLa cells assessed as increase in blue fluorescence intensity at 100 uM incubated for 1 hr by confocal fluorescence microscopic analysis. In kind it is ADME, cell-based.
The test system of series [7] is HeLa. Put plainly: Cytotoxicity against human HeLa cells assessed as inhibition of cell proliferation incubated for 72 hrs by CCK-8 assay. In kind it is functional, cell-based.
For series [8], the system named is HeLa. Put plainly: Cytotoxicity against human HeLa cells assessed as inhibition of cell proliferation incubated for 72 hrs 15 uM of 4-(6-methyl-1,2,4,5-tetrazin-3-yl)benzyl 3-(2-hydroxyethoxy)-2,3-dihydrophenanthro[9,10-b][1,4]dioxine-7-carboxylate by CCK-8 assay. Format: functional, cell-based.
The nature of series [9]: Prodrug activation in human A549 cells xenografted in BALB/c nude mouse assessed as blue fluorescence intensity in tumor at 5 mg/kg, ip administered for 1 hr by confocal microscopic analysis. Format: organism-based. The following applies: in vivo. Background: In xenograft studies the graft and the host belong to different species.
Series [10] concerns A549. Put plainly: Cytotoxicity against human A549 cells assessed as inhibition of cell proliferation incubated for 72 hrs in presence of 10 uM 4-(6-methyl-1,2,4,5-tetrazin-3-yl)benzyl 3-(2-hydroxyethoxy)-2,3-dihydrophenanthro[9,10-b][1,4]dioxine-7-carboxylate by CCK-8 assay. Format: functional, cell-based. The following applies: A549, 72 h.
In series [11] the test system is A549. Put plainly: Cytotoxicity against human A549 cells assessed as inhibition of cell proliferation incubated for 72 hrs in presence of 15 uM 4-(6-methyl-1,2,4,5-tetrazin-3-yl)benzyl 3-(2-hydroxyethoxy)-2,3-dihydrophenanthro[9,10-b][1,4]dioxine-7-carboxylate by CCK-8 assay. In kind it is functional, cell-based. The following applies: A549, 72 h.
In series [12] the test system is A549. Put plainly: Cytotoxicity against human A549 cells assessed as inhibition of cell proliferation incubated for 72 hrs by CCK-8 assay. In kind it is functional, cell-based. Particulars: A549, 72 h.
Series [13] is described as follows: Cytotoxicity against human HEK293T cells assessed as inhibition of cell proliferation incubated for 72 hrs by CCK-8 assay. In kind it is toxicity, cell-based, HEK-293T.
Series [14] can be described thus: Drug uptake in human HEK293T cells assessed as increase in blue fluorescence intensity at 100 uM incubated for 1 hr by confocal fluorescence microscopic analysis. In kind it is ADME, cell-based. Particulars: hek-293t.
The subject of series [15] is A549. Put plainly: Cytotoxicity against human A549 cells assessed as cell viability incubated for 72 hrs by CCK-8 assay. Format: functional, cell-based. Particulars: A549, 72 h.
Series [16] deals with A549. Put plainly: Cytotoxicity against human A549 cells assessed as inhibition of cell proliferation upto 20 uM incubated for 72 hrs by CCK-8 assay. Format: functional, cell-based.
The test system of series [17] is A549. Put plainly: Cytotoxicity against human A549 cells assessed as inhibition of cell proliferation incubated for 72 hrs in presence of 60 uM 4-(6-methyl-1,2,4,5-tetrazin-3-yl)benzyl 3-(2-hydroxyethoxy)-2,3-dihydrophenanthro[9,10-b][1,4]dioxine-7-carboxylate by CCK-8 assay. In kind it is functional, cell-based. The following applies: A549, 72 h.
Series [18] has as its system A549. Put plainly: Cytotoxicity against human A549 cells assessed as inhibition of cell proliferation incubated for 72 hrs in presence of 80 uM 4-(6-methyl-1,2,4,5-tetrazin-3-yl)benzyl 3-(2-hydroxyethoxy)-2,3-dihydrophenanthro[9,10-b][1,4]dioxine-7-carboxylate by CCK-8 assay. Format: functional, cell-based. Particulars: A549, 72 h.
Series [19] can be described thus: Prodrug release in human A549 cells assessed as DOX release by measuring increase in fluorescence intensity at 50 uM measured after 2 hrs by confocal microscopy. In kind it is ADME, cell-based. Particulars: a549, 2 h.

Activity calls are given as the source filed them. No cut-off for these calls is given here.

As to `COc1cccc2c1C(=O)c1c(O)c3c(c(O)c1C2=O)C[C@@](O)(C(=O)CO)C[C@@H]3O[C@H]1C[C@H](NC(=O)OC2/C=C/CCCCC2)[C@H](O)[C@H](C)O1` (some centres undefined), the IC50 (in general, the concentration that gives 50% inhibition) came out at 0.03 µM in series [1]; 0.989 µM in series [7]; 0.059 µM in [8]; 0.067 µM in series [10]; 0.058 µM in [11]; 0.537 µM in series [12]. In addition, the figures for the Drug metabolism result in [2], in [5] and in [9] were “metabolite_detected”, “metabolite_detected” and “metabolite_notdetected”, respectively. Also, the IC50 at 72 h stood at 0.126 µM in series [3], 0.145 µM in [4] and 1.15 µM in [13]. Besides, the Drug uptake entry in series [6] and in series [14] was “Not_active” each time.

`Cc1nnc(-c2ccc(COC(=O)c3ccc4c5c(c6ccccc6c4c3)OCC(OCCO)O5)cc2)c2c1CCCCCC2` (centres undefined): the EC50 – broadly, the concentration that produces a half-maximal response – in series [15] is above 50 µM. In series [16], the result was Active.

Take `[C-]#[N+]CCCOC(=O)N1[C@H]2[C@@H]1CN1C3=C(C(=O)C(N)=C(C)C3=O)[C@@H](COC(N)=O)[C@@]21OC`: the IC50 in [17] was 0.239 µM; in series [10], 0.313 µM; in [18], 0.239 µM; in [12], 0.359 µM.

Turning to `COc1cccc2c1C(=O)c1c(O)c3c(c(O)c1C2=O)C[C@@](O)(C(=O)CO)C[C@@H]3O[C@H]1C[C@H](N)[C@H](O)[C@H](C)O1` [DOXORUBICIN], the IC50 in series [7] stood at 0.014 µM.

For `Cc1nnc(-c2ccc(COC(=O)c3ccc4c5c(c6ccccc6c4c3)OCC(OCCOC(=O)c3ccc(B(O)O)cc3)O5)cc2)nn1` (centres undefined), the Drug metabolism entry in series [5] is given as “metabolite_detected”; in series [9], “metabolite_notdetected”.

For `CO[C@@]12[C@H](COC(N)=O)C3=C(C(=O)C(C)=C(N)C3=O)N1C[C@@H]1N[C@@H]12` [MITOMYCIN], in series [12], the IC50 was 0.03 µM.

On to `Cc1nnc(-c2ccc(COC(=O)c3ccc4c5c(c6ccccc6c4c3)OCC(OCCO)O5)cc2)nn1` (centres undefined), for which, in series [19], the Drug metabolism entry was “metabolite_detected”. Further, the Drug uptake result in series [6] and in [14] was “Not_active” in each case. The EC50 in [15] was above 50 µM. Moreover, the result in [16] was Active.
